Data set [1] is described as follows: Laser diffraction particle size analysis. The class given is physicochemical. The conditions noted are these: laser sizing, n = 3. As for the experimental part: The laser diffraction particle size analysis was performed on raw Fas and all co-SD samples.
The nature of data set [2]: Residual water content by Karl Fischer titration (KFT). The class given is physicochemical. From the text:
Using conditions similar to those previously reported (Li et al., 2014, supra; […], et al., European journal of pharmaceutical sciences: official journal of the European Federation for Pharmaceutical Sciences. Jul. 16, 2013; 49(4):699-711; […], et al., International journal of nanomedicine. 2013; 8:275-293), the residual water content of all SD powders were quantified analytically by Karl Fischer titration (KFT) coulometrically using a TitroLine 7500 trace titrator (SI Analytics, Germany). Approximately 2-10 mg of powder was added to the titration cell containing Hydranal® Coulomat AD reagent. The residual water content was measured at the end of titration.

Structures can show the parent of a compound that is named as a salt.

For the compound `O=S(=O)(c1cccc2cnccc12)N1CCCNCC1` [Raw Fas, Fasudil monohydrochloride hemihydrate salt], in data set [1], the DV90 is 7.42 ± 0.19 μm, the Dv10 is 3.67 ± 0.32 μm, the Dv50 result is “about 5 μm” and the “Span Value” is given as 0.765 ± 0.15. The Dv50 in data set [1] (listed as Raw FH) was found to be 4.96 ± 3.5 μm. In addition, the “Residual Water content” value in data set [2] (n = 3) is 2.97 ± 0.06 % w/w. Further, in data set [2] (n = 3, listed as raw Fas), the “Residual Water content” value was 2.97 % w/w.

These data come from US11878023B2, “Compositions and methods for delivering pharmaceutical agents” (Arizona Board of Regents on Behalf of the University of …, priority 2017, dated 2024).
